Reference: patent US3947584A, “Novel indolyl alkyl amines, method of producing same, and their use as anorectic agents” (Siegfried Aktiengesellschaft, priority 1972, dated 1976)

How the values were obtained:
[1] = Toxicity, single oral application in mouse (LD 50); conditions: in vivo, dissolved in equivalent quantities of HCl
Description: (§1) The first column gives the respective two alkyl groups which are fixed in the α-position to the otherwise unsubstituted tryptamines.

[2] = tested on: Rat; test: Anorexia, single oral application in rat (ED 50); type: in vivo; conditions: dissolved in equivalent quantities of HCl
Description: as §1

[3] = tested on: Mouse / Rat; test: Therapeutic index (LD 50 mouse, oral / ED 50 rat, oral); type: in vivo
Description: as §1

[4] = Solubility; conditions: in usual alcohols and in water; hydrochloride

Compound | LD50 [1] [mg/kg] | ED50 [2] [mg/kg] | Therapeutic Index (LD 50 / ED 50) [3] | solubility [4]
CCC(N)(CC)Cc1c[nH]c2ccccc12 [Ethyl, ethyl, 3-(2'-ethyl-2'-aminobutyl)-indole] | 620 | > 50 | < 12 | –
CCC(C)(N)Cc1c[nH]c2ccccc12 (stereo not shown) [Example 3, 3-(2'-amino-2'-methylbutyl)-indole] | – | – | – | soluble very satisfactorily in usual alcohols and in water
CCC(C)(N)Cc1c[nH]c2ccccc12 (stereo not shown) [Methyl, ethyl, 3-(2'-amino-2'-methylbutyl)-indole] | 700 | 15 | 47 | –
CC(C)(N)Cc1c[nH]c2ccccc12 [Methyl, methyl, α,α-dimethyl tryptamine, reference compound] | 320 | 36 | 9 | –
CCCC(C)(N)Cc1c[nH]c2ccccc12 (stereo not shown) [Methyl, propyl, 3-(2'-methyl-2'-aminopentyl)-indole] | 530 | ~50 | approx. 11 | –
CCCC(N)(CCC)Cc1c[nH]c2ccccc12 [Propyl, propyl, 3-(2'-propyl-2'-aminopentyl)-indole] | 900 | > 50 | < 18 | –
